Test results from US20090215908A1, “TOLL LIKE RECEPTOR (TLR) SIGNALING ANTAGONIST” (RELIANCE LIFE SCIENCES PVT. LTD., priority 2007, published 2009).

Key:
[1] = system: TNF; test: Pre-screen of anti-TNF activity, cells + LPS (Table 2); type: cell-based
[2] = target: T1, TLR4 (Homo sapiens, UniProt O00206); test: TLR4 ligand induced TNF-α secretion in THP-1 cells (ELISA); type: cell-based; conditions: 1 hr pretreatment, TLR4 ligand 750 ng/ml, 24 hrs
T1 construct: endogenous in cells
Experimental: (§1) The present invention has checked the effect of various TLR ligands on THP-1 monocytes, PBMCs and their ability to activate and release TNF-α. For this purpose about 9 TLR ligands were used. These ligands were obtained from Apotech Cat; APO-54N-018-K101 and assayed for TNF-α release in culture supernatants. THP-1 (FIG. 1a) and PBMCs (2×10^5 cells/well) (FIG. 1b) were plated in 96-well plate. The cells were pretreated with RSCL-0520 in DMSO 1 hr prior to TLR ligand treatment. Following 1 hr pre-treatment, the cells were treated with TLR ligands [TLR2, TLR5 and TLR6-75 ng/ml each, TLR3-75 μg/ml, TLR4-750 ng/ml, TLR7, TLR8 and TLR9-7.5 μg/ml) for 24 hrs. The culture supernatant were collected after the stipulated time and assayed for TNF-α release using a Duoset Enzyme-Linked ImmunoSorbent Assay (ELISA) detection Kit (R&D systems, MN 55413, USA; Cat: DY-210 E). Simultaneously, supernatants from cells treated with ligands without RSCL-0520 pre-treatment and RSCL-0520 without ligand treatment were collected which served as respective controls.

[3] = target: T1, TLR4; test: TLR4 ligand induced TNF-α secretion in PBMCs (ELISA); type: cell-based; conditions: 1 hr pretreatment, TLR4 ligand 750 ng/ml, 24 hrs
Experimental: as §1

[4] = system: THP-1 cells; test: Toxicity to THP-1 cells by MTT assay; type: cell-based, human; conditions: analyzed in tandem with TNF-α assay
Text: The toxicity of RSCL-0520 (FIG. 2b) was also by treating cells with RSCL-0520 by MTT assay. […] The viability of the cells (analyzed in tandem by MTT) was not affected by RSCL-0520 indicating its non-toxic nature.

[5] = system: serum TNF-α; test: LPS induced TNF-α release in Balb/c mice, pre-treatment; type: in vivo; conditions: serum 1 hr post LPS
Experimental: (§2) The present invention has studied the ability of RSCL-0520 to exert protection against inflammatory agents in a mice (Balb/c) model. Balb/c (5-6 weeks) mice were injected with LPS (225 μg) intraperitoneally with and without pretreatment of RSCL-0520 (10 and 20 mg/kg). The compound was injected intraperitoneally 30 min before LPS treatment. The mice were monitored for 1 hr post LPS treatment. Untreated mice served as controls. Blood from retro-orbital plexus was collected under anesthesia 1 hr post LPS injection. Serum collected was analysed for TNF-α secretion using an ELISA detection kit.

[6] = system: serum TNF-α; test: LPS induced TNF-α release in Balb/c mice, treatment post LPS; type: in vivo
Experimental: as §2
Our results have more significance from the post LPS treatment of RSCL-0520. Here we have stimulated the inflammation process in mice with an injection of LPS (225 μg) intraperitoneally and 30 min post LPS, we have challenged the ability of RSCL-0520 at two different doses (10 mg/kg, 20 mg/kg) to inhibit the TNF-α secretion.

T1 sequence (O00206 24-839): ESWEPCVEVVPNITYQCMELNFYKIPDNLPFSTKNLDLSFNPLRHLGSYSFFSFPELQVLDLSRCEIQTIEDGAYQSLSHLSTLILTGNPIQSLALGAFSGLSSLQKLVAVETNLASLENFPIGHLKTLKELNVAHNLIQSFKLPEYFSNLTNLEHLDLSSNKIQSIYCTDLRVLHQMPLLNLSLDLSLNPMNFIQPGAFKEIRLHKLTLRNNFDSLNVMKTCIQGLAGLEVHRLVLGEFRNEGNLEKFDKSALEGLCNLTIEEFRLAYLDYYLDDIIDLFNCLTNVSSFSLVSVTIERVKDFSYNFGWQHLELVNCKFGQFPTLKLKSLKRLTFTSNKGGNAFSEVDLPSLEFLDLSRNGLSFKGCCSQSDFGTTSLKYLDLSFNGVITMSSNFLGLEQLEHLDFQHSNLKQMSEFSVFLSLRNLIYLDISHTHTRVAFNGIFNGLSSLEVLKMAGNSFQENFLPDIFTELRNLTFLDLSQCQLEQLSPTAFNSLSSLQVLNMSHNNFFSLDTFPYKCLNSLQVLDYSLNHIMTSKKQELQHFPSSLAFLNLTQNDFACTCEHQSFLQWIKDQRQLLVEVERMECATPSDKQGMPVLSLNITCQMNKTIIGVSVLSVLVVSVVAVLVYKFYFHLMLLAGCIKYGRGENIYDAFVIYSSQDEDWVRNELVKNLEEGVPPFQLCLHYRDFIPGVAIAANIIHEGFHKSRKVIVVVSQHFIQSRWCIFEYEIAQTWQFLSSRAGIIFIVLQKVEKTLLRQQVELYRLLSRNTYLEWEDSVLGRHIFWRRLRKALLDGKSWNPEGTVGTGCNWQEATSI
T1 sequence (Q9Y6Y9 17-160 partner limits assumed): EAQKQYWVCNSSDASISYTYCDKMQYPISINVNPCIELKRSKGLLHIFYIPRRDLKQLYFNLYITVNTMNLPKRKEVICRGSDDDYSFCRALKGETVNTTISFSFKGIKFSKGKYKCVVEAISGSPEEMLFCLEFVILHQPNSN

For `COc1c(O)cc2ccc3cc(O)ccc3c2c1OC` [RSCL-0518, 2,7-dihydroxy-3,4-dimethoxyphenanthrene], the inhibition at 1 µM ([1]; Cells + 1 μM + LPS) was 0%, the inhibition at 10 µM ([1]; Cells + 10 μM + LPS) was 0% and the inhibition at 50 µM ([1]; Cells + 50 μM + LPS) was 39%. It also gave an inhibition at 100 µM ([1]; Cells + 100 μM + LPS) of 87%.

Work on `COc1c(OC(C)=O)cc2ccc3cc(OC(C)=O)ccc3c2c1OC` [RSCL-0519, 2,7-diacetoxy-3,4-dimethoxyphenanthrene] yielded an inhibition at 1 µM ([1]; Cells + 1 μM + LPS) of 0%, an inhibition at 10 µM ([1]; Cells + 10 μM + LPS) of 0% and an inhibition at 50 µM ([1]; Cells + 50 μM + LPS) of 21%. The inhibition at 100 µM ([1]; Cells + 100 μM + LPS) was 72%.

`COc1cc(O)c2c(c1)CCc1c-2ccc(OC)c1O` [RSCL-0520, 1,5-dihydroxy-2,7-dimethoxy-9,10-dihydrophenanthrene] was tested, and the “decrease of TNF-α production” value [2] was about 50%, the “decrease of TNF-α production” value [3] was about 50% and the “viability of the cells (MTT)” value [4] was “not affected”. The “reduction of serum TNF production” value ([5]; 10 mg/kg i.p. 30 min before LPS 225 μg i.p.) was about 66%, the “reduction of serum TNF production” value ([5]; 20 mg/kg i.p. 30 min before LPS 225 μg i.p.) was about 70% and the inhibition at 1 µM ([1]; Cells + 1 μM + LPS) was 4%. It also gave an inhibition at 10 µM ([1]; Cells + 10 μM + LPS) of 40%, an inhibition at 50 µM ([1]; Cells + 50 μM + LPS) of 95% and an inhibition at 100 µM ([1]; Cells + 100 μM + LPS) of 100%. For the same compound, the “inhibition of TNF secretion” value ([6]; 10 mg/kg given 30 min post LPS 225 μg i.p.) was about 38% and the “inhibition of TNF secretion” value ([6]; 20 mg/kg given 30 min post LPS 225 μg i.p.) was 49%.

Compound `COc1cc2c(c(OC(C)=O)c1)-c1ccc(OC)c(OC(C)=O)c1CC2` [RSCL-0521, 1,5-diacetoxy-2,7-dimethoxy-9,10-dihydrophenanthrene] has an inhibition at 1 µM ([1]; Cells + 1 μM + LPS) of 0%, an inhibition at 10 µM ([1]; Cells + 10 μM + LPS) of 13% and an inhibition at 50 µM ([1]; Cells + 50 μM + LPS) of 76%. The inhibition at 100 µM ([1]; Cells + 100 μM + LPS) was 92%.

In the case of `COc1c(OC(=O)/C=C/c2ccc(OC(C)=O)c(OC(C)=O)c2)cc2ccc3cc(OC(=O)/C=C/c4ccc(OC(C)=O)c(OC(C)=O)c4)ccc3c2c1OC` [RSCL-0522, 3,4-dimethoxyphenanthrene-2,7-bis-[(2E)-3-[3,4-bis(acetyloxy)phenyl] acrylate], the “% TNF Inhibition” value ([1]; Cells + 1 μM + LPS) is reported as 0%, the “% TNF Inhibition” value ([1]; Cells + 10 μM + LPS) is reported as 12% and the “% TNF Inhibition” value ([1]; Cells + 50 μM + LPS) is reported as 37%. For the same compound, the “% TNF Inhibition” value ([1]; Cells + 100 μM + LPS) was 34%.

In the case of `COc1ccc2c(ccc3cc(OC)c(OC)c(OC)c32)c1` [RSCL-0575, 2,3,4,7-tetramethoxyphenanthrene], the inhibition at 1 µM ([1]; Cells + 1 μM + LPS) is reported as 26%, the inhibition at 10 µM ([1]; Cells + 10 μM + LPS) is reported as 33% and the inhibition at 50 µM ([1]; Cells + 50 μM + LPS) is reported as 32%. For the same compound, the inhibition at 100 µM ([1]; Cells + 100 μM + LPS) was 49%.

`COc1cc(OCc2ccccc2)c2c(ccc3c(OCc4ccccc4)c(OC)ccc32)c1` [RSCL-0638, 1,5-dibenzyloxy-2,7-dimethoxy phenanthrene] gave an inhibition at 1 µM ([1]; Cells + 1 μM + LPS) of 0%, an inhibition at 10 µM ([1]; Cells + 10 μM + LPS) of 0% and an inhibition at 50 µM ([1]; Cells + 50 μM + LPS) of 0%. It also gave an inhibition at 100 µM ([1]; Cells + 100 μM + LPS) of 0%.
